Measured values as given in PMC6470589, “Contribution of Molecular Structure to Self-Assembling and Biological Properties of Bifunctional Lipid-Like 4-(N-Alkylpyridinium)-1,4-Dihydropyridines” (Pharmaceutics, 2019).
Where “and” joins values, the source holds several entries; their conditions need not be identical. Equal values may be shown once. Entries after “also recorded” stand apart in the source; their conditions may differ. Read-outs that look alike come from different tables or passages of the source.

Experiments:
[1] = Self-assembling properties by dynamic light scattering (DLS); type: physicochemical; conditions: for PDI ± SD, 1 Set: freshly prepared samples; for Zeta-Pot ± SD: freshly prepared samples in water, 0.5 mg/mL (1–7), 0.25 mg/mL (8–10), 0.1 mg/mL (11); for PDI ± SD, 2 Set: two weeks after the first set, samples stored at r.t.; for Stability of nanoparticles: two weeks of storage at r.t., DLS
Procedure: Samples of compounds for dynamic light scattering (DLS) studies were prepared by thin-film hydration method in an aqueous solution at a concentration of 0.5 mg/mL for compounds 1–7, 0.25 mg/mL for compounds 8–10, and 0.1 mg/mL for compound 11. A corresponding amount of compounds was weighted in a round-bottom flask and dissolved in chloroform; then, the organic solvent was removed in vacuo, and the residue was dried in high vacuo for 1 h. An appropriate amount of deionised water was added to each flask for the preparation of stock solutions with the above-mentioned concentrations. Samples were prepared by sonication using a bath-type sonicator (Cole Parmer Ultrasonic Cleaner 8891CPX (Vernon Hills, IL, USA)). Samples were sonicated for 60 min at 50 °C.
The DLS measurements of the nanoparticles in an aqueous solution were carried out on a Zetasizer Nano ZSP (Malvern Panalytical Ltd., Malvern, UK) instrument with Malvern Instruments Ltd. Software 7.12, using the following specifications—medium: water; refractive index: 1.33; viscosity: 0.8872 cP; temperature: 25 °C; dielectric constant: 78.5; nanoparticles: liposomes; refractive index of materials: 1.60; detection angle: 173°; wavelength: 633 nm. Data were analysed using the multimodal number distribution software that was included with the instrument. The measurements were performed in triplicate in order to check their reproducibility.

[2] = test system: six prokaryotic (bacteria) and one eukaryotic (yeast) microorganism species; assay: Toxicity screen, whole panel of microorganisms; type: cell-based; conditions: concentrations tested 10 to 0.001 mM
Procedure: An estimation of the toxicity of 4-(N-alkylpyridinium)-1,4-DHP derivatives 3, 6, 7, and 9–11 was performed using six prokaryotic (bacteria) and one eukaryotic (yeast) microorganism species according to the procedure elaborated by Suppi et al.. The microorganisms used in the study and their origin were: Bacillus subtilis subsp. spizizenii (ATCC® 6633™*, Microbiologics®, St Cloud, MN, USA), Escherichia coli (ATCC® 8739, Microbiologics®), Klebsiella pneumoniae (Latvian Microorganisms strain collection, LMKK, strain number 535, Riga, Latvia), Micrococcus luteus (LMKK, No. 25), Pseudomonas aeruginosa (NCTC 12924, Biosciences Ltd., Dublin, Ireland), Proteus mirabilis (LMKK, No 590), and Saccharomyces cerevisiae, CEN.PK2 strain [32].
Bacteria and yeast cultures were cultivated until their exponential growth phase (optical density max 1); then, 100 µL of cell suspension was taken, washed in deionised (DI) water, and added to serially diluted samples of corresponding 4-(N-alkylpyridinium)-1,4-DHPs in DI water. All 1,4-DHPs were tested in five serially diluted concentrations (10 mM, 1 mM, 0.1 mM, 0.01 mM, and 0.001 mM). Test organisms were exposed to 1,4-DHP derivatives in DI water on 96-well microplates (Corning, Corning, NY, USA) at 28 °C for 24 h without shaking in the dark. Then, a 5 µL sample was taken from each well and spotted on yeast extract, bactopeptone, dextrose broth (YPD) (yeast extract 1%, bactopeptone 2%, glucose 2% and agar 2%) plates to test the growth of yeasts and lysogeny broth (LB) (yeast extract 0.5%, bactopeptone 1%, NaCl 0.5% and agar 2%) to test the growth for bacteria. Plates were left in 30 °C for 24 h, and assessed for microbial growth.
If there were no colonies after incubation with 1,4-DHPs in the last concentration of (0.001 mM), then their boundary concentration was set to 0.0001 mM or 0.1 µM.

[3] = Basal cytotoxicity test (neutral red uptake) with estimation of LD50 from IC50; type: cell-based, mouse; conditions: mouse, NIH 3T3 fibroblast cells
Procedure: The neutral red uptake (NRU) assay was performed according to the standard protocol of Stokes modified by NICEATM-ECVAM validation study. The NRU cytotoxicity assay procedure was based on the ability of viable cells to incorporate and bind neutral red, which is a supravital dye.
NIH 3T3 (Mouse Swiss Albino embryo fibroblast) cells (9000 cells/well) were placed into 96-well plates for 24 h in DMEM medium containing 5% fetal bovine serum (FBS). Then, they were exposed to the test compound over a range of seven concentrations (1000 μg/mL, 316 μg/mL, 100 μg/mL, 31 μg/mL, 10 μg/mL, 3.0 μg/mL, and 1.0 μg/mL) for 24 h. Untreated cells were used as a control. After 24 h, the medium was removed from all plates. Then, 250 μL of neutral red (NR) solution was added (0.05 mg/mL NR in DMEM 24 h pre-incubated at 37 °C and then filtered before use through a 0.22-µm syringe filter). Plates were incubated for 3 h, and then, cells were washed three times with phosphate buffered saline (PBS). The dye within viable cells was released by extraction with a mixture of acetic acid, ethanol, and water (1:50:49). The absorbance of neutral red was measured using a spectrophotometer multiplate reader Infinite M1000 (Tecan Austria GmbH, Salzburg, Austria) at 540 nm. The optical density (OD) was calculated using the formula: OD (treated cells) × 100/OD (control cells). The IC50 values were calculated using the program Graph Pad Prism® 3.0.
Data from the in vitro tests were used for estimating the starting dose for acute oral systemic toxicity tests in rodent. The in vivo starting dose is an estimated LD50 value that is calculated by inserting the in vitro IC50 value into a regression formula: log LD50 (mM/kg) = 0.439 log IC50 (mM) + 0.621 [29]. The value is recalculated to mg/kg, and compounds are evaluated in accordance with four toxicity categories: category 1: LD50 ≤ 5 mg/kg (highly toxic); category 2: 5 < LD50 ≤ 50 mg/kg (moderately toxic); category 3: 50 < LD50 ≤ 300 mg/kg (slightly toxic); category 4: 300 < LD50 ≤ 2000 mg/kg (practically non-toxic). Using an alternative in vitro method enables comparing the possible toxicity of new compounds and selecting compounds for further study, which will vastly reduce the number of animal experiments.

[4] = category by estimated LD50 (mg/kg), read-out: Toxicity category from estimated LD50

| Structure (SMILES) | PDI ± SD, 1 Set [1] | Zeta-Pot ± SD [1] | PDI ± SD, 2 Set [1] | Stability of nanoparticles [1] | Effect on survival of microorganisms [2] | LD50 at 24 h [3, 4] [mg/kg] | LD50 at 24 h ([3]; calculated from NIH 3T3 NRU IC50, recalculated to mg/kg, read-out: Basal Cytotoxicity Estimated LD50) [mg/kg] |
| --- | --- | --- | --- | --- | --- | --- | --- |
| CCCCCCCCCCCC[n+]1cccc(C2C(C(=O)OCC)=C(C)NC(C)=C2C(=O)OCC)c1 [Compound 3] | 0.14 and 0.14 ± 0.01 | +57.73 ± 2.30 mV | 0.17 and 0.17 ± 0.02 | stable after two weeks of storage; also recorded: confirmed the stability of nanoparticles | toxic at various degrees | – | – |
| C#CCN1C(C)=C(C(=O)OCC)C(c2ccc[n+](CCCCCCCCCCCC)c2)C(C(=O)OCC)=C1C [Compound 6] | 0.15 and 0.15 ± 0.02 | – | 0.20 and 0.20 ± 0.01 | stable after two weeks of storage; also recorded: confirmed the stability of nanoparticles | toxic at various degrees | 50 to 300 | – |
| C#CCOC(=O)C1=C(C)NC(C)=C(C(=O)OCC#C)C1c1ccc[n+](CC)c1 [Compound 7] | 0.90 and 0.90 ± 0.03 | −0.78 ± 0.26 mV | 0.73 ± 0.09 | weak stability | – | – | > 2700 |
| C#CCOC(=O)C1=C(C)NC(C)=C(C(=O)OCC#C)C1c1ccc[n+](CCCCCCCCCCCC)c1 [Compound 9] | 0.36 and 0.36 ± 0.08 | +32.00 ± 4.81 mV | 0.57 and 0.57 ± 0.05 | lost their homogeneity after two weeks of storage | toxic at various degrees | 50 to 300 | – |
